# Results: paper PMC5430874 (Scientific Reports, 2017)
# Positions count from the first letter of the chain named. Where two headings read alike, the source gives them in different places.
# Tests used:
# Format in all cases: cell-based
# myc-GPR139(WT) = target: T1, myc-GPR139(WT) (Homo sapiens, UniProt Q6DWJ6); assay: Fluo-4 Ca2+-assay, myc-tagged wild-type GPR139 in HEK293; conditions: for EC50: Fluo-4 Ca2+-assay; for Emax: HEK293
# T1 construct: mGluR5 signal peptide (N); expressed in transfected cells; host or cells: HEK293
# T1 sequence (Q6DWJ6 2-353 limits assumed): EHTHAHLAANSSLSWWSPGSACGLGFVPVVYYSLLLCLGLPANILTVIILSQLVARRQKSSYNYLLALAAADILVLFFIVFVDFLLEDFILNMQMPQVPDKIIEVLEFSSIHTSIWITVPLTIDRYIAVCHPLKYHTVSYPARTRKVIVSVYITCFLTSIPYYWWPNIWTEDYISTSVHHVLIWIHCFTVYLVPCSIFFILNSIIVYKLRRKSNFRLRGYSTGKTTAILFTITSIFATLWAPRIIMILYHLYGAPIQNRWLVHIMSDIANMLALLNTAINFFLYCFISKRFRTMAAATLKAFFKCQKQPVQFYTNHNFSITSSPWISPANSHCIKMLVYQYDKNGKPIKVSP
# Source text: (§1) To study the influence of specific amino acids in the predicted binding pocket on receptor function, the desired mutations were introduced into an N-terminally c-myc-tagged wild type human GPR139 (NM_001002911.3) in the pEGFP-N1 vector (BD Biosciences)[32], [33]. As previously described, these plasmids carry the signal peptide of mGluR5 to promote cell surface expression followed by a c-myc epitope to enable detection of total and surface expression by ELISA, followed by an engineered MluI and NotI site for easy insertion of the receptor of interest. Furthermore, the start-codon in the GPR139 sequence was deleted to ensure c-myc-tagging. Mutagenesis was designed in Serial Cloner 2.6 (© Franck Perez [SerialBasics]) and carried out by GenScript (USA). All mutated residues are illustrated in Supplementary Fig. 1b. An untagged GPR139(WT) in pEGFP-N1 was also generated to ensure that the c-myc-tag had no influence on GPR139(WT) function.
# (§2) All GPR139 mutants were transfected into HEK293 cells. The HEK293 cells were grown in Dulbecco’s modified Eagle’s medium (DMEM) (Gibco, 41965) supplemented with 10% dialyzed fetal bovine serum (Gibco, 26400, United States origin), 100 units/mL penicillin and 100 μg/mL streptomycin (Gibco, 15140). HEK293 cells were reverse transfected using Lipofectamine2000 (Invitrogen). More specifically two mixtures were made: 1) 10 ng DNA/well + 25 μL Opti-MEM/well and 2) […] Lipofectamine2000/well + 25 μL Opti-MEM/well. The two mixtures were mixed and 50 μL/well was added directly in black 96-well plates with flat clear bottoms for the Fluo-4 Ca^2+-assay (Corning, Falcon, 353219) or in white Opaque 96-well Microplate (PerkinElmer Life, 6005680) for ELISA. 100 μL containing 20,000 cells were added to each well and incubated 48 hours before assays. All plates were coated with poly-D-lysine.
# (§3) Compound 1a (1a) was kindly provided by H. Lundbeck A/S, Denmark. […] Both compounds were dissolved to 20 mM in DMSO (Sigma, D2650) and subsequently diluted in a HEPES buffer (HBSS (Gibco, 14025) supplemented with 20 mM HEPES + 1 mM MgCl2 + 1 mM CaCl2, pH = 7.4) to a final concentration of 0.5% DMSO in the Fluo-4 Ca^2+-assay. The DMSO level was kept constant for all concentrations of both compounds. DMSO was confirmed not to have any activity by itself at this concentration. L-Trp (T0254) and L -Phe (P2126) were obtained from Sigma-Aldrich and dissolved in buffer.
# (§4) The Ca^2+ measurements were preformed using the Fluo-4 NW Calcium Assay Kit (Invitrogen, Molecular Probes, F36206) as previously described. Briefly, the Fluo-4 dye loading solution was prepared according to the manufacturer’s instructions by dissolving it in HEPES-buffer supplemented with 2.5 mM probenecid. 50 μL dye loading solution was added to each well. Cells were incubated with the Fluo-4 dye for 60 min at 37 °C, then washed with 100 μL HEPES-buffer. 100 μL HEPES-buffer supplemented with 2.5 mM probenecid was then added to each well and incubated in 10 minutes at 37 °C before measurement. […] Intracellular calcium changes were recorded as indicated on either a NOVOstar (BMG Labtech) at 37 °C with an excitation filter of 485 nm and an emission filters 520 nm or a FlexStation 3 Benchtop Multi-Mode Microplate Reader (Molecular Devices) at 37 °C with an excitation wavelength of 485 nm and emission of 525 nm.
# (§5) All pharmacological data have been analyzed by using Prism 6.0 (GraphPad Software Inc., San Diego). Fitting of concentration response curves was performed by non-linear regression log(agonist) vs. response (four parameters). Pooled data are shown with standard error of the mean (S.E.M.) and data showing one representative are shown with standard deviation (S.D.). Changes in potency (pEC50) and span of myc-GPR139(WT) in comparison to untagged GPR139(WT) was statistically analyzed with a paired t-test and significance was accepted at p < 0.05. The ELISA data were normalized to surface expression of myc-GPR139(WT) (100%). […]
# GPR139 F109L^3×33 = target: T2, GPR139 F109L^3×33 (Homo sapiens, UniProt Q6DWJ6, F109L); assay: Fluo-4 Ca2+-assay, GPR139 mutant F109L; conditions: for EC50: F109L mutant
# T2 construct: mGluR5 signal peptide (N); expressed in transfected cells; host or cells: HEK293
# T2 sequence (Q6DWJ6 2-353 F109L limits assumed): T1 sequence (Q6DWJ6 2-353 limits assumed) with F108L
# Source text: as §1, §2, §3, §4, §5
# GPR139 H187A^5×43 = target: T3, GPR139 H187A^5×43 (Homo sapiens, UniProt Q6DWJ6, H187A); assay: Fluo-4 Ca2+-assay, GPR139 mutant H187A; conditions: for EC50: H187A mutant (surface expression 36% of WT)
# T3 construct: mGluR5 signal peptide (N); expressed in transfected cells; host or cells: HEK293
# T3 sequence (Q6DWJ6 2-353 H187A limits assumed): T1 sequence (Q6DWJ6 2-353 limits assumed) with H186A
# Source text: as §1, §2
# Compound 1a (1a) was kindly provided by H. Lundbeck A/S, Denmark. […]
# The Ca^2+ measurements were preformed using the Fluo-4 NW Calcium Assay Kit (Invitrogen, Molecular Probes, F36206) as previously described. […] Intracellular calcium changes were recorded as indicated on either a NOVOstar (BMG Labtech) at 37 °C with an excitation filter of 485 nm and an emission filters 520 nm or a FlexStation 3 Benchtop Multi-Mode Microplate Reader (Molecular Devices) at 37 °C with an excitation wavelength of 485 nm and emission of 525 nm.
# All pharmacological data have been analyzed by using Prism 6.0 (GraphPad Software Inc., San Diego). […] Changes in potency (pEC50) and span of myc-GPR139(WT) in comparison to untagged GPR139(WT) was statistically analyzed with a paired t-test and significance was accepted at p < 0.05. […]
# [1] = WT, HEK293, three independent experiments, read-out: pEC50 ± SEM (converted)
EC50 (myc-GPR139(WT); [1]),"EC50 (myc-GPR139(WT); myc-tagged wild-type (WT) receptor, read-out: EC50)",EC50 (GPR139 F109L^3×33),"Emax at 8 µM (GPR139 F109L^3×33; F109L, at 8 μM, normalized to buffer (0%) and 8 μM 1a (100%) on WT)",EC50 (GPR139 H187A^5×43),"Emax at 8 µM (GPR139 H187A^5×43; H187A, at 8 μM, normalized to buffer (0%) and 8 μM 1a (100%) on WT)",Emax (myc-GPR139(WT)),Emax (GPR139 F109L^3×33),change of potency (GPR139 F109L^3×33; F109L mutant versus WT),Emax (GPR139 H187A^5×43),"Emax (myc-GPR139(WT); WT, normalized to buffer (0%) and 30 mM Phe (100%))","Emax at 30000 µM (GPR139 F109L^3×33; F109L, at 30 mM, normalized to buffer (0%) and 30 mM Phe (100%) on WT)",SMILES,"Emax (myc-GPR139(WT); WT, normalized to buffer (0%) and 10 mM Trp (100%))","Emax at 10000 µM (GPR139 F109L^3×33; F109L, at 10 mM, normalized to buffer (0%) and 10 mM Trp (100%) on WT)"
0.234 µM,0.67 µM,> 7.94 µM,42 ± 16%,> 7.94 µM,35 ± 5%,–,–,–,–,–,–,COc1cc(OC)cc(C(=O)NNC(=O)Nc2cccc3ccccc23)c1 [Compound 1a],–,–
0.0479 µM,–,3.98 µM,–,6.61 µM,–,100%,102 ± 3%,~ 100 fold,60 ± 9%,–,–,C[C@@H](NC(=O)CNC(=O)c1cccc(Cl)c1)c1ccccc1 (racemic) [Compound 7c],–,–
372 µM,–,> 31600 µM,–,–,–,–,–,–,–,100%,72 ± 9%,"N[C@@H](Cc1ccccc1)C(=O)O [L-Phe, phenylalanine]",–,–

SMILES,EC50 (myc-GPR139(WT); [1]),"EC50 (myc-GPR139(WT); myc-tagged wild-type (WT) receptor, read-out: EC50)",EC50 (GPR139 F109L^3×33),"Emax at 8 µM (GPR139 F109L^3×33; F109L, at 8 μM, normalized to buffer (0%) and 8 μM 1a (100%) on WT)",EC50 (GPR139 H187A^5×43),"Emax at 8 µM (GPR139 H187A^5×43; H187A, at 8 μM, normalized to buffer (0%) and 8 μM 1a (100%) on WT)",Emax (myc-GPR139(WT)),Emax (GPR139 F109L^3×33),change of potency (GPR139 F109L^3×33; F109L mutant versus WT),Emax (GPR139 H187A^5×43),"Emax (myc-GPR139(WT); WT, normalized to buffer (0%) and 30 mM Phe (100%))","Emax at 30000 µM (GPR139 F109L^3×33; F109L, at 30 mM, normalized to buffer (0%) and 30 mM Phe (100%) on WT)","Emax (myc-GPR139(WT); WT, normalized to buffer (0%) and 10 mM Trp (100%))","Emax at 10000 µM (GPR139 F109L^3×33; F109L, at 10 mM, normalized to buffer (0%) and 10 mM Trp (100%) on WT)"
"N[C@@H](Cc1c[nH]c2ccccc12)C(=O)O [L-Trp, tryptophan]",200 µM,–,> 10000 µM,–,–,–,–,–,–,–,–,–,100%,60 ± 5%
